Reference: paper PMC11062899, “De novo development of small cyclic peptides that are orally bioavailable” (Nature Chemical Biology, 2023)
“And” between values parts separate entries of the source, which are not always exact repeats. Equal entries are not always repeated. Where two headings read alike, the source gives them in different places.

Experiments:
[1] = Passive artificial membrane permeability (PAMPA);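 as to Permeability% Average: top well sample relative to theoretical equilibrium sample by TIC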
human α-thrombin = human α-thrombin (Homo sapiens, UniProt P00734); test: Protease inhibition, Ki for human α-thrombin (fluorogenic substrate Z-Gly-Gly-Arg-AMC); type: biochemical; conditions: for Human alpha thrombin inhibition, slope normalized to DMSO: replicates R1-R3
Method: (§1) The inhibition constants (Ki) of cyclic peptides were calculated by measuring thrombin inhibition in the presence of different concentrations of the cyclic peptides. […] Human α-thrombin (Molecular Innovations) and rat α-thrombin (Molecular Innovations) were used at final concentrations of 2 nM and 3 nM, respectively, and fluorogenic substrate (Z-Gly-Gly-Arg-AMC, Bachem) was used at a concentration of 50 μM. Enzymatic activity was determined by measuring fluorescent gain on a Tecan Infinite M200 Pro microplate reader (excitation: 360 nm, emission: 465 nm) or a PHERAstar FSX microplate reader (excitation: 380 nm, emission: 440 nm) for 30 min at 25 °C with a fluorescent readout every 3 min. The two instruments were controlled with Tecan Infinite M200 Pro instrument software (iControl, version 1.12) and PHERAstar FSX software (version 5.70, edition 8), respectively. Protease inhibition was calculated by comparing the enzymatic activity to a control without cyclic peptide.
(§2) Half maximal inhibitory concentration (IC50) values were determined using a four-parameter logistic regression model in GraphPad Prism 9 to fit sigmoidal curves to the acquired data points according to equation (2) below.2 y=b+a−b/1+10^(logIC50−x)p where a and b represent the measured inhibition maximum and minimum, respectively; x is the logarithm of peptide concentration; y is the thrombin activity compared to a control without the cyclic peptide; and p is the Hill coefficient.
(§3) Ki values were calculated using the IC50 and the Cheng–Prusoff equation (equation (3)).3 Ki=IC50/1+S0/Km where Km is the Michaelis–Menten constant of the enzyme for the substrate used in the assay, and [S]0 is the initial substrate concentration.

rat α-thrombin = biological target: T1, rat α-thrombin (Rattus norvegicus, UniProt P18292); test: Protease inhibition, Ki for rat α-thrombin (fluorogenic substrate Z-Gly-Gly-Arg-AMC); type: biochemical; conditions: for Rat alpha thrombin inhibition, slope normalized to DMSO: replicates R1-R3
T1 construct: rat α-thrombin (Molecular Innovations) were used at final concentrations of 2 nM and 3 nM; purchased Molecular Innovations
Method: as §1, §2, §3

[2] = peptide concentration 1.00E+02 uM
[3] = peptide concentration 1.19E-05 uM
[4] = peptide concentration 1.22E-02 uM
[5] = peptide concentration 1.25E+01 uM
[6] = peptide concentration 1.53E-03 uM
[7] = peptide concentration 1.56E+00 uM
[8] = peptide concentration 1.91E-04 uM
[9] = peptide concentration 1.95E-01 uM
[10] = peptide concentration 2.38E-05 uM
[11] = peptide concentration 2.44E-02 uM
[12] = peptide concentration 2.50E+01 uM
[13] = peptide concentration 3.05E-03 uM
[14] = peptide concentration 3.12E+00 uM
[15] = peptide concentration 3.81E-04 uM
[16] = peptide concentration 3.91E-01 uM
[17] = peptide concentration 4.77E-05 uM
[18] = peptide concentration 4.88E-02 uM
[19] = peptide concentration 5.00E+01 uM
[20] = peptide concentration 6.10E-03 uM
[21] = peptide concentration 6.25E+00 uM
[22] = peptide concentration 7.63E-04 uM
[23] = peptide concentration 7.81E-01 uM
[24] = peptide concentration 9.54E-05 uM
[25] = peptide concentration 9.77E-02 uM

Q: What does the source list for O=C1C[C@H]2CCCN2C(=O)[C@H](Cc2ccccc2)NC(=O)[C@@H](NC(=O)c2ccc(Cl)s2)CCC=CCCN1 [compound 39]?
A: PAMPA permeability: % permeability ([1]; 50 μM, 12–18 h, acceptor concentration relative to equilibrium): 70 ± 4%; Permeability% (single replicates R1–R3) ([1]; 50 μM, 13 h (Fig. 5d)): 73.98% and 66.95% and 68.74%; Permeability% Average ([1]; 50 μM, 13 h (Fig. 5d)): 69.9%; Papp at 50 μM ([1]; PAMPA, pH 7.4): 11.5 ×10⁻⁶ cm/s; Ki (human α-thrombin; average of R1-R3, read-out: Human alpha thrombin inhibition, Ki Average): 4.24 µM; Human alpha thrombin inhibition, slope normalized to DMSO (human α-thrombin; [2]): 7.2 and 18.3 and 14.2; Human alpha thrombin inhibition, slope normalized to DMSO (human α-thrombin; [3]): 106.2 and 105.2 and 96.5; Human alpha thrombin inhibition, slope normalized to DMSO (human α-thrombin; [4]): 97.4 and 143.9 and 87.6; Human alpha thrombin inhibition, slope normalized to DMSO (human α-thrombin; [5]): 39.9 and 42.6 and 31.3; Human alpha thrombin inhibition, slope normalized to DMSO (human α-thrombin; [6]): 107.6 and 85.1 and 100.8; Human alpha thrombin inhibition, slope normalized to DMSO (human α-thrombin; [7]): 63.5 and 67.4 and 86.8; Human alpha thrombin inhibition, slope normalized to DMSO (human α-thrombin; [8]): 94.4 and 101.9 and 82.4; Human alpha thrombin inhibition, slope normalized to DMSO (human α-thrombin; [9]): 80.8 and 88.6 and 87.2; Human alpha thrombin inhibition, slope normalized to DMSO (human α-thrombin; [10]): 104.6 and 100.1 and 103.6; Human alpha thrombin inhibition, slope normalized to DMSO (human α-thrombin; [11]): 87.3 and 61.5 and 110.7; Human alpha thrombin inhibition, slope normalized to DMSO (human α-thrombin; [12]): 18.7 and 30.4 and 26.6; Human alpha thrombin inhibition, slope normalized to DMSO (human α-thrombin; [13]): 107.4 and 96.1 and 108.0; Human alpha thrombin inhibition, slope normalized to DMSO (human α-thrombin; [14]): 66.3 and 72.5 and 68.3; Human alpha thrombin inhibition, slope normalized to DMSO (human α-thrombin; [15]): 108.2 and 71.6 and 89.8; Human alpha thrombin inhibition, slope normalized to DMSO (human α-thrombin; [16]): 98.6 and 87.2 and 97.0; Human alpha thrombin inhibition, slope normalized to DMSO (human α-thrombin; [17]): 102.6 and 101.4 and 90.5; Human alpha thrombin inhibition, slope normalized to DMSO (human α-thrombin; [18]): 86.2 and 70.0 and 72.9; Human alpha thrombin inhibition, slope normalized to DMSO (human α-thrombin; [19]): 22.0 and 20.2 and 22.5; Human alpha thrombin inhibition, slope normalized to DMSO (human α-thrombin; [20]): 107.1 and 94.4 and 65.9; Human alpha thrombin inhibition, slope normalized to DMSO (human α-thrombin; [21]): 53.3 and 30.4 and 58.6; Human alpha thrombin inhibition, slope normalized to DMSO (human α-thrombin; [22]): 101.4 and 104.3 and 107.6; Human alpha thrombin inhibition, slope normalized to DMSO (human α-thrombin; [23]): 93.7 and 88.2 and 91.3; Human alpha thrombin inhibition, slope normalized to DMSO (human α-thrombin; [24]): 107.7 and 104.4 and 105.3; Human alpha thrombin inhibition, slope normalized to DMSO (human α-thrombin; [25]): 100.1 and 100.4 and 85.5; IC50 (human α-thrombin; single replicates R1-R3, read-out: Human alpha thrombin inhibition, IC50): 6.06 µM and 4.33 µM and 6.11 µM; Ki (human α-thrombin; single replicates R1-R3, read-out: Human alpha thrombin inhibition, Ki): 4.67 µM (2×) and 3.34 µM (2×) and 4.71 µM (2×); Ki (rat α-thrombin; average of R1-R3, read-out: Rat alpha thrombin inhibition, Ki Average): 1.19 µM; Rat alpha thrombin inhibition, slope normalized to DMSO (rat α-thrombin; [2]): 8.6 and 7.4 and 11.4; Rat alpha thrombin inhibition, slope normalized to DMSO (rat α-thrombin; [3]): 107.5 and 103.5 and 101.6; Rat alpha thrombin inhibition, slope normalized to DMSO (rat α-thrombin; [4]): 107.3 and 99.3 and 79.0; Rat alpha thrombin inhibition, slope normalized to DMSO (rat α-thrombin; [5]): 23.0 and 17.3 and 19.0; Rat alpha thrombin inhibition, slope normalized to DMSO (rat α-thrombin; [6]): 108.1 and 101.8 and 103.2; Rat alpha thrombin inhibition, slope normalized to DMSO (rat α-thrombin; [7]): 38.0 and 68.3 and 64.4; Rat alpha thrombin inhibition, slope normalized to DMSO (rat α-thrombin; [8]): 111.1 and 96.6 and 97.0; Rat alpha thrombin inhibition, slope normalized to DMSO (rat α-thrombin; [9]): 80.3 and 102.2 and 95.7; Rat alpha thrombin inhibition, slope normalized to DMSO (rat α-thrombin; [10]): 106.4 and 99.5 and 91.3; Rat alpha thrombin inhibition, slope normalized to DMSO (rat α-thrombin; [11]): 104.4 and 97.3 and 93.2; Rat alpha thrombin inhibition, slope normalized to DMSO (rat α-thrombin; [12]): 14.0 and 11.2 and 8.1; Rat alpha thrombin inhibition, slope normalized to DMSO (rat α-thrombin; [13]): 71.4 and 100.8 and 98.3; Rat alpha thrombin inhibition, slope normalized to DMSO (rat α-thrombin; [14]): 53.4 and 47.3 and 48.9; Rat alpha thrombin inhibition, slope normalized to DMSO (rat α-thrombin; [15]): 103.9 and 95.9 and 106.5; Rat alpha thrombin inhibition, slope normalized to DMSO (rat α-thrombin; [16]): 72.4 and 80.6 and 86.0; Rat alpha thrombin inhibition, slope normalized to DMSO (rat α-thrombin; [17]): 110.4 and 101.0 and 101.1; Rat alpha thrombin inhibition, slope normalized to DMSO (rat α-thrombin; [18]): 95.5 and 75.4 and 93.2; Rat alpha thrombin inhibition, slope normalized to DMSO (rat α-thrombin; [19]): 9.4 and 9.6 and 8.3; Rat alpha thrombin inhibition, slope normalized to DMSO (rat α-thrombin; [20]): 86.0 and 97.7 and 122.2; Rat alpha thrombin inhibition, slope normalized to DMSO (rat α-thrombin; [21]): 35.0 and 30.8 and 29.6; Rat alpha thrombin inhibition, slope normalized to DMSO (rat α-thrombin; [22]): 106.2 and 91.0 and 101.5; Rat alpha thrombin inhibition, slope normalized to DMSO (rat α-thrombin; [23]): 51.1 and 75.3 and 70.4; Rat alpha thrombin inhibition, slope normalized to DMSO (rat α-thrombin; [24]): 108.0 and 102.0 and 103.8; Rat alpha thrombin inhibition, slope normalized to DMSO (rat α-thrombin; [25]): 101.3 and 96.8 and 84.0; IC50 (rat α-thrombin; single replicates R1-R3, read-out: Rat alpha thrombin inhibition, IC50): 1.34 µM and 2.67 µM and 2.44 µM; Ki (rat α-thrombin; single replicates R1-R3, read-out: Rat alpha thrombin inhibition, Ki): 741 nM (2×) and 1.48 µM (2×) and 1.35 µM (2×)
